16 compounds from PubChem BioAssay AID256 (DTP/NCI, 2004) can be followed below.

The assay relates to CD2F1 mice, L1210 leukemia ip, survival T/C. Nature of the assay: NCI In Vivo Anticancer Drug Screen. Data for tumor model L1210 Leukemia (intraperitoneal) in CD2F1 (CDF1) mice. The settings on record: higher = longer survival. A digest of the protocol: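 In this screen, transplantable tumors were grown in mice given either the compound or its vehicle. Results were expressed as the treated measurement relative to the control measurement.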

The mark [1] stands for this setting: endpoint: mean survival time, dose: 12.5 mg/kg/injection, schedule: Q01DX009 (ip), vehicle: saline.
Where [2] appears, read: endpoint: mean survival time, dose: 100.0 mg/kg/injection, schedule: Q04DX002 (ip), vehicle: saline with Tween-80.
Where [3] appears, read: endpoint: mean survival time, dose: 200.0 mg/kg/injection, schedule: Q04DX002 (ip), vehicle: saline with Tween-80.
The mark [4] stands for this setting: endpoint: mean survival time, dose: 400.0 mg/kg/injection, schedule: Q04DX002 (ip), vehicle: saline with Tween-80.
The mark [5] stands for this setting: endpoint: mean survival time, dose: 100.0 mg/kg/injection, schedule: Q01DX009 (ip), vehicle: saline with Tween-80.
The mark [6] stands for this setting: endpoint: mean survival time, dose: 100.0 mg/kg/injection, schedule: Q04DX003 (ip), vehicle: saline with Tween-80.
The mark [7] stands for this setting: endpoint: mean survival time, dose: 200.0 mg/kg/injection, schedule: Q01DX009 (ip), vehicle: saline with Tween-80.
Where [8] appears, read: endpoint: mean survival time, dose: 200.0 mg/kg/injection, schedule: Q04DX003 (ip), vehicle: saline with Tween-80.
[9] abbreviates: endpoint: mean survival time, dose: 400.0 mg/kg/injection, schedule: Q04DX003 (ip), vehicle: saline with Tween-80.
Setting [10] is: endpoint: mean survival time, dose: 25.0 mg/kg/injection, schedule: Q01DX009 (ip), vehicle: saline with Tween-80.
[11] abbreviates: endpoint: mean survival time, dose: 50.0 mg/kg/injection, schedule: Q01DX009 (ip), vehicle: saline with Tween-80.

Molecules are shown by their SMILES. Values joined by “and” are separate entries in the source; they are usually repeats but may differ in a detail not shown here. Equal entries are not always repeated. Inconclusive results and toxic doses are left out.

`O=c1[nH]c(=O)c2nc(-c3cccnc3)cnc2[nH]1`: the T/C reads like this: under setting [1], 98 % of control and 103 % of control; (endpoint: mean survival time, dose: 25.0 mg/kg/injection, schedule: Q01DX009 (ip), vehicle: saline) 101 % of control and 102 % of control; (endpoint: mean survival time, dose: 50.0 mg/kg/injection, schedule: Q01DX009 (ip), vehicle: saline) 93 % of control and 104 % of control; (endpoint: mean survival time, dose: 100.0 mg/kg/injection, schedule: Q01DX009 (ip), vehicle: saline) 98 % of control and 110 % of control; (endpoint: mean survival time, dose: 200.0 mg/kg/injection, schedule: Q01DX009 (ip), vehicle: saline) 101 % of control and 110 % of control; (endpoint: mean survival time, dose: 400.0 mg/kg/injection, schedule: Q01DX009 (ip), vehicle: saline) 114 % of control and 102 % of control.
Turning to `N=C(N)CCCCCCCCC(=N)N`, the T/C was 162 % of control (endpoint: mean survival time, dose: 0.78 mg/kg/injection, schedule: Q01DX009 (ip), vehicle: saline); 96 % of control (endpoint: mean survival time, dose: 1.56 mg/kg/injection, schedule: Q01DX009 (ip), vehicle: saline); 104 % of control (endpoint: mean survival time, dose: 3.12 mg/kg/injection, schedule: Q01DX009 (ip), vehicle: saline); 106 % of control (endpoint: mean survival time, dose: 6.25 mg/kg/injection, schedule: Q01DX009 (ip), vehicle: saline); 115 % of control under setting [1].
As to `NC(=O)c1cn(C2CC(O)C(CO)O2)c2ncnc(N)c12` (stereo unspecified), the T/C reads like this: (endpoint: mean survival time, dose: 0.03 mg/kg/injection, schedule: Q01DX009 (ip), vehicle: water) 93 % of control; (endpoint: mean survival time, dose: 0.06 mg/kg/injection, schedule: Q01DX009 (ip), vehicle: water) 93 % of control; (endpoint: mean survival time, dose: 0.13 mg/kg/injection, schedule: Q01DX009 (ip), vehicle: water) 94 % of control; (endpoint: mean survival time, dose: 0.25 mg/kg/injection, schedule: Q01DX009 (ip), vehicle: water) 98 % of control; (endpoint: mean survival time, dose: 0.5 mg/kg/injection, schedule: Q01DX009 (ip), vehicle: water) 102 % of control; (endpoint: mean survival time, dose: 1.0 mg/kg/injection, schedule: Q01DX009 (ip), vehicle: water) 98 % of control. Also, the T/C was 100 % of control (endpoint: mean survival time, dose: 2.0 mg/kg/injection, schedule: Q01DX009 (ip), vehicle: water); 104 % of control (endpoint: mean survival time, dose: 4.0 mg/kg/injection, schedule: Q01DX009 (ip), vehicle: water); 108 % of control (endpoint: mean survival time, dose: 5.0 mg/kg/injection, schedule: Q01DX009 (ip), vehicle: water); 100 % of control (endpoint: mean survival time, dose: 8.0 mg/kg/injection, schedule: Q01DX009 (ip), vehicle: water); 99 % of control (endpoint: mean survival time, dose: 10.0 mg/kg/injection, schedule: Q01DX009 (ip), vehicle: water); 98 % of control (endpoint: mean survival time, dose: 16.0 mg/kg/injection, schedule: Q01DX009 (ip), vehicle: water). Besides, the T/C was 104 % of control (endpoint: mean survival time, dose: 20.0 mg/kg/injection, schedule: Q01DX009 (ip), vehicle: water); 101 % of control (endpoint: mean survival time, dose: 40.0 mg/kg/injection, schedule: Q01DX009 (ip), vehicle: water); 103 % of control (endpoint: mean survival time, dose: 80.0 mg/kg/injection, schedule: Q01DX009 (ip), vehicle: water); 104 % of control (endpoint: mean survival time, dose: 160.0 mg/kg/injection, schedule: Q01DX009 (ip), vehicle: water).
In the case of `CCCC(=O)O.CCCC(=O)O.CCCC(=O)O.CCCC(=O)O.[Rh].[Rh]`, the T/C was 100 % of control and 104 % of control (endpoint: mean survival time, dose: 0.03 mg/kg/injection, schedule: Q01DX009 (ip), vehicle: saline + alcohol); 93 % of control and 104 % of control (endpoint: mean survival time, dose: 0.06 mg/kg/injection, schedule: Q01DX009 (ip), vehicle: saline + alcohol); 96 % of control and 110 % of control (endpoint: mean survival time, dose: 0.12 mg/kg/injection, schedule: Q01DX009 (ip), vehicle: saline + alcohol); 100 % of control and 104 % of control (endpoint: mean survival time, dose: 0.25 mg/kg/injection, schedule: Q01DX009 (ip), vehicle: saline + alcohol); 100 % of control and 112 % of control (endpoint: mean survival time, dose: 0.5 mg/kg/injection, schedule: Q01DX009 (ip), vehicle: saline + alcohol); 102 % of control and 110 % of control (endpoint: mean survival time, dose: 1.0 mg/kg/injection, schedule: Q01DX009 (ip), vehicle: saline + alcohol).
As to `COc1ccc(NC(=O)Oc2ccc3ccccc3c2)cc1`, the T/C was 87 % of control under setting [2], 93 % of control under setting [3] and 93 % of control under setting [4].
For the compound `CC(C)(C)C(=O)CC(=O)C(C)(C)C.CC(C)(C)C(=O)CC(=O)C(C)(C)C.CC(C)(C)C(=O)CC(=O)C(C)(C)C.[Fe]`, the T/C runs as follows: under setting [5], 98 % of control; under setting [6], 100 % of control; under setting [7], 97 % of control; under setting [8], 96 % of control; (endpoint: mean survival time, dose: 400.0 mg/kg/injection, schedule: Q01DX009 (ip), vehicle: saline with Tween-80) 95 % of control; under setting [9], 91 % of control.
Consider `O=S(=O)(O)c1cc(O)ccc1O.O=S(=O)(O)c1cc(O)ccc1O.[NH-]C1CCCCC1[NH-].[Pt+2]`, for which the T/C was 117 % of control (endpoint: median survival time, dose: 6.25 mg/kg/injection, schedule: Q04DX003 (ip), vehicle: saline); 123 % of control (endpoint: median survival time, dose: 12.5 mg/kg/injection, schedule: Q04DX003 (ip), vehicle: saline); 162 % of control (endpoint: median survival time, dose: 25.0 mg/kg/injection, schedule: Q04DX003 (ip), vehicle: saline); 150 % of control and 337 % of control (endpoint: median survival time, dose: 50.0 mg/kg/injection, schedule: Q04DX003 (ip), vehicle: saline); 235 % of control and 375 % of control (endpoint: median survival time, dose: 100.0 mg/kg/injection, schedule: Q04DX003 (ip), vehicle: saline).
As to `S=C(S)N1CCCC1`, the T/C by setting is: (endpoint: mean survival time, dose: 100.0 mg/kg/injection, schedule: Q04DX003 (ip), vehicle: saline) 95 % of control; (endpoint: mean survival time, dose: 200.0 mg/kg/injection, schedule: Q04DX003 (ip), vehicle: saline) 95 % of control; (endpoint: mean survival time, dose: 400.0 mg/kg/injection, schedule: Q04DX003 (ip), vehicle: saline) 92 % of control.
As for `O=C(O)CCCCCCCCCCCCCCCCCCCCC(=O)O`, the T/C under setting [6] is 87 % of control, the T/C under setting [8] was 102 % of control and the T/C under setting [9] is 87 % of control.
`Cn1c(=O)c2[nH]c(-c3ccc(Cl)c(Cl)c3)nc2n(C)c1=O`: the T/C runs as follows: (endpoint: mean survival time, dose: 12.5 mg/kg/injection, schedule: Q01DX005 (ip), vehicle: other) 101 % of control; (endpoint: mean survival time, dose: 25.0 mg/kg/injection, schedule: Q01DX005 (ip), vehicle: other) 92 % of control; (endpoint: mean survival time, dose: 50.0 mg/kg/injection, schedule: Q01DX005 (ip), vehicle: other) 92 % of control; (endpoint: mean survival time, dose: 100.0 mg/kg/injection, schedule: Q01DX005 (ip), vehicle: other) 87 % of control; (endpoint: mean survival time, dose: 200.0 mg/kg/injection, schedule: Q01DX005 (ip), vehicle: other) 89 % of control.
For the compound `CCOC(=O)Oc1c(OC)cc(C(=O)O[C@@H]2C[C@@H]3CN4CCc5c([nH]c6cc(OC)ccc56)[C@H]4C[C@@H]3[C@H](C(=O)OC)[C@H]2OC)cc1OC`, the T/C is 104 % of control under setting [10], 94 % of control under setting [5] and 103 % of control under setting [6].
Turning to `CCCCN1CCCCC1C(=O)Nc1c(C)cccc1C` (stereo unspecified), the T/C is 102 % of control (endpoint: mean survival time, dose: 9.5 mg/kg/injection, schedule: Q01DX001 (ip), vehicle: saline); 102 % of control (endpoint: mean survival time, dose: 19.0 mg/kg/injection, schedule: Q01DX001 (ip), vehicle: saline); 100 % of control (endpoint: mean survival time, dose: 38.0 mg/kg/injection, schedule: Q01DX001 (ip), vehicle: saline).
In the case of `Cl/C=C(\Cl)CCl`, the T/C is, setting by setting: under setting [10], 91 % of control; under setting [11], 96 % of control; under setting [5], 94 % of control.
On to `Oc1ccccc1C=Nc1ccc(N=Cc2ccccc2O)cc1`, for which the T/C reads like this: under setting [6], 88 % of control; under setting [8], 91 % of control; under setting [9], 100 % of control.
For `CC1CN1P(=O)(N1CC1C)N1CC1C.CC1CN1P(=O)(N1CC1C)N1CC1C.CC1CN1P(=O)(N1CC1C)N1CC1C.CC1CN1P(=O)(N1CC1C)N1CC1C.CC1CN1P(=O)(N1CC1C)N1CC1C.CC1CN1P(=O)(N1CC1C)N1CC1C.[Fe+3].[O-][Cl+3]([O-])([O-])O` (stereo unspecified), the T/C is 98 % of control under setting [2], 98 % of control under setting [3] and 115 % of control under setting [4].
Take `O=C1NC(=O)C(Cc2ccccc2)C(=O)N1`: the T/C under setting [11] is 92 % of control, the T/C under setting [5] was 96 % of control and the T/C under setting [7] is 96 % of control.
